Results on two compounds are retold here after PubChem BioAssay (NCI).

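Values below derive from 48-hour exposures of cells grown in 96-well plates, with endpoints linearly interpolated between the two concentrations bracketing the appropriate inhibition level. At the GI50, growth is halved. TGI denotes the concentration required for complete inhibition of growth.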 Where only a bound is given, the exact number is not on record here.

Among the test systems are U251 CNS; NCI-H522 lung; UACC-62 melanoma; CAKI-1 renal; HCC-2998 colon; SK-MEL-5 melanoma; LOX IMVI melanoma; SR leukemia; RPMI-8226 leukemia; MDA-MB-435.
What all share (test): NCI-60 cell line screen, 48 h

On to `C=C1OC2OC(C)C(NC(=O)OCC(Cl)(Cl)Cl)C(OC(C)=O)C2O1` (stereo not given), for which the TGI with U251 CNS, in the experiment on NCI-H522 lung, with UACC-62 melanoma, in the experiment on CAKI-1 renal, with HCC-2998 colon and with SK-MEL-5 melanoma was greater than 100 µM in each case. Besides, the TGI in the experiment on LOX IMVI melanoma, in the experiment with SR leukemia, in the experiment on RPMI-8226 leukemia and with MDA-MB-435 was greater than 100 µM throughout.
Regarding `COc1cc(-c2nc(-c3ccccc3)c(-c3ccccc3)[nH]2)cc(OC)c1O`, the GI50 in the experiment on U251 CNS is 16.3 µM; in the experiment with NCI-H522 lung, 17.6 µM; in the experiment on UACC-62 melanoma it was 15.2 µM; in the experiment with CAKI-1 renal, 20.5 µM; in the experiment on HCC-2998 colon, 17.1 µM; in the experiment on SK-MEL-5 melanoma, 14.2 µM. Besides, the GI50 is 17.2 µM in the experiment on LOX IMVI melanoma, 13.6 µM in the experiment on SR leukemia, 24.1 µM with RPMI-8226 leukemia and 14.5 µM in the experiment on MDA-MB-435. Further, the TGI in the experiment with U251 CNS was found to be 33.2 µM; with NCI-H522 lung, 33.8 µM; with UACC-62 melanoma, 29.6 µM; in the experiment on CAKI-1 renal, 55.2 µM; in the experiment with HCC-2998 colon it was 32.7 µM; with SK-MEL-5 melanoma, 27.6 µM. Moreover, the TGI in the experiment on LOX IMVI melanoma came out at 32.6 µM; with SR leukemia, 51.7 µM; in the experiment on RPMI-8226 leukemia, 83 µM; in the experiment on MDA-MB-435, 28.4 µM.
